Results from patent US20100093541A1, “HERBICIDE COMBINATION COMPRISING DIMETHOXYTRIAZINYL SUBSTITUTED DIFLUOROMETHANESULFONYLANILIDES” (BAYER CROPSCIENCE AG, priority 2008, published 2010).

Experiments:
Assay type in all cases: in vivo
[1] = tested on: Triticum aestivum (TRZAS); assay: Post-emergence action, greenhouse pot test, visual scoring
Procedure: (§1) Seeds or rhizome pieces of mono- and dicotyledonous harmful and useful plants were placed in peat pots (diameter 4 cm) filled with sandy loam and then covered with soil. The pots were kept in a greenhouse under optimum conditions. In addition, harmful plants encountered in paddy rice cultivation were cultivated in pots with a water level 2 cm above the soil surface.
(§2) About three weeks after the start of the cultivation, the test plants were treated at the 2- to 3-leaf stage. The herbicides, formulated as powder or liquid concentrates, were, either alone or in the combinations according to the invention, sprayed in various dosages on to the green parts of the plants using an application rate of 600 l of water/ha (converted). For further cultivation of the plants, the pots were then again kept under optimum conditions in a greenhouse.
(§3) The visual scoring of the herbicidal effects was carried out in intervals up to 21 days after the treatment. Scoring was carried out in percent in comparison to the untreated control plants. 0%=no herbicidal activity, 100%=complete herbicidal activity=complete kill.
(§4) The percentages from the treatments with the herbicides alone (=individual application) and with the combinations according to the invention (=mixtures) were employed to calculate interactions using the method of Colby. When the observed efficacies of the mixtures exceed the formal sum of the values of the tests with individual applications, they also exceed the expected value according to Colby, which is calculated using the formula below (cf. S. R. Colby; in Weeds 15 (1967) pp. 20 to 22):
(§5) • A, B=activity of components A and B in percent at a dosage of a and b g of ai/ha (=gramm of active substance per hectare), respectively. • E=expected value in % at a dosage of a+b g of ai/ha.
(§6) The combinations according to the invention of herbicides from group (A) with herbicides from group (B) were tested on a broad spectrum of important harmful plants (weed grasses, broad-leaved weeds/Cyperaceae) and useful plants: Triticum aestivum (TRZAS), Stellaria media (STEME), Lolium multiflorum (LOLMU), Veronica persica (VERPE), Alopecurus myosuroides (ALOMY), Matricaria inodora (MATIN), Brassica napus (BRSNW), Viola tricolor (VIOTR), Avena fatua (AVEFA), Amaranthus retroflexus (AMARE), Zea mays (ZEAMX), Pharbitis purpurea (PHBPU), Setaria viridis (SETVI), Fallopia (ex Polygonum) convolvulus (POLCO), Echinochloa crus-galli (ECHCG), Abuthilon theophrasti (ABUTH), Cyperus esculentus (CYPES), Oryza sativa (ORYSA).
(§7) Of particular interest are the results shown in the tables (Tab.) below, where the following key is used: • (1) EPPO code (former Bayer code) for the treated plant (see above) • (2) Time of scoring: DAT (days after treatment) • (3) Component A tested (identifying number) • (4) Component B tested (identifying number) • (5) Dosage component A [g of ai/ha] • (6) Dosage component B [g of ai/ha] • (7) % activity found • (8) E value (calculated according to Colby; see above) • (9) Comments: “SYNERGY”=synergistic interaction (E value<% activity found); “SAFENING”=safener action on useful plant (E value>% activity found)

[2] = tested on: Alopecurus myosuroides (ALOMY); assay: Post-emergence action against weeds, greenhouse pot test, visual scoring; conditions: 21 DAT, component B 40 g of ai/ha
Procedure: as §1, §2, §3, §4, §5, §6, §7

Avena fatua (AVEFA) = assay: as above
Procedure: as §1, §2, §3, §4, §5, §6, §7

[3] = tested on: Matricaria inodora (MATIN); assay: as above; conditions: 21 DAT
Procedure: as §1, §2, §3, §4, §5, §6, §7

[4] = tested on: Cyperus esculentus (CYPES); assay: as above
Procedure: as §1, §2, §3, §4, §5

[5] = tested on: Fallopia (ex Polygonum) convolvulus (POLCO); assay: as above; conditions: 10 DAT, component B 150 g of ai/ha
Procedure: as §1, §2, §3, §4, §5, §6, §7

Setaria viridis (SETVI) = assay: as above
Procedure: as §1, §2, §3, §4, §5, §6, §7

Viola tricolor (VIOTR) = assay: as above
Procedure: as §1, §2, §3, §4, §5, §6, §7

Oryza sativa (ORYSA) = assay: Post-emergence action, greenhouse pot test, visual scoring; conditions: 21 DAT, component B 150 g of ai/ha
Procedure: as §1, §2, §3, §4, §5, §6, §7

Zea mays (ZEAMX) = assay: as above
Procedure: as §1, §2, §3, §4, §5, §6, §7

[6] = 21 DAT, component B 40 g of ai/ha
[7] = 21 DAT, component B 120 g of ai/ha
[8] = 10 DAT, component B 50 g of ai/ha
[9] = 21 DAT, component B 50 g of ai/ha
[10] = 21 DAT, component B 150 g of ai/ha

In the case of COc1nc(OC)nc(C(=O)c2cccc(F)c2N(C)S(=O)(=O)C(F)F)n1 [A-1], the “% activity found” value ([1]; 21 DAT, component A 12 g of ai/ha, Table 16) was 0%.
For C#CCN(C)c1c(C#N)cnn1-c1nn2c(c1Cl)CCCC2 [B1-4, 1-(3-chloro-4,5,6,7-tetrahydropyrazolo[1,5-a]pyridin-2-yl)-5-(methyl-2-propynylamino)-1H-pyrazole-4-carbonitrile], the “% activity found” value [2] was 30%, the “% activity found” value (Avena fatua (AVEFA); [6]) was 40% and the “% activity found” value ([3]; component B 120 g of ai/ha) was 80%. For the same compound, the “% activity found” value ([1]; 10 DAT, component B 40 g of ai/ha) was 40%, the “% activity found” value ([1]; 10 DAT, component B 120 g of ai/ha) was 60% and the “% activity found” value [1, 6] was 30%. For the same compound, the “% activity found” value [1, 7] was 60% and the “% activity found” value [4, 7] was 40%.
N#Cc1cc(Br)c(O)c(Br)c1 [B1-1, 3,5-dibromo-4-hydroxybenzonitrile] was tested, and the “% activity found” value (Avena fatua (AVEFA); [8]) was 0%, the “% activity found” value [5] was 10% and the “% activity found” value ([3]; component B 150 g of ai/ha) was 70%. The “% activity found” value ([3]; component B 150 g of ai/ha, Table 9) was 60%, the “% activity found” value (Setaria viridis (SETVI); [8]) was 20% and the “% activity found” value (Setaria viridis (SETVI); [9]) was 20%. For the same compound, the “% activity found” value (Setaria viridis (SETVI); [10]) was 20%, the “% activity found” value (Viola tricolor (VIOTR); [8]) was 20% and the “% activity found” value (Viola tricolor (VIOTR); [10]) was 20%. The “% activity found” value (Oryza sativa (ORYSA)) was 0%, the “% activity found” value [1, 10] was 0% and the “% activity found” value (Zea mays (ZEAMX); [8]) was 0%. For the same compound, the “% activity found” value (Zea mays (ZEAMX); 10 DAT, component B 150 g of ai/ha) was 20%, the “% activity found” value (Zea mays (ZEAMX); [9]) was 0% and the “% activity found” value [4, 8] was 0%. The “% activity found” value [4, 9] was 0% and the “% activity found” value [4, 10] was 0%.
